Columns and labels:
[1] = IAM chromatography on new IAM.PC.DD2 columns (gradient HPLC, CHI (IAM)); format: physicochemical; design: key to CHI (IAM) “new” / P20511-014-3 CHI (IAM): CHI (IAM) from retention times calibrated to predefined CHI standards; details: for P20511-014-3 CHI (IAM): new IAM.PC.DD2 column batch P20511-014-3, pH 7.4; for R20511-014-3 CHI (IAM): new IAM.PC.DD2 column batch R20511-014-3, pH 7.4
Protocol: The IAM binding was measured using IAM.PC.DD2 HPLC columns (Regis Technologies, Inc., IL, USA) with dimensions of 100 x 4.6 mm, particle size 10 μm with 300 Å pore size.
Two batches of IAM.PC.DD2 columns were studied (R20511-014-3 and P20511-014-3) that had been prepared using the new batches of silica support.
The retention times were standardized using the IAM calibration mixture, containing octanophenone, heptanophenone, hexanophenone, valerophenone, butyrophenone, propiophenone, acetophenone, acetanilide and paracetamol. The retention times of the compounds were plotted against the isocratically determined and predefined CHI (IAM) values listed in Table 1. The slope and intercept of the obtained straight line was used to calculate the CHI IAM values of new compounds.

[2] = target: T1, human serum albumin (HSA) (Homo sapiens, UniProt P02768); details: cited from earlier work
[3] = target: T1, human serum albumin (HSA); experiment: Protein binding on chemically bonded HSA column (Chiralpak-HSA); details: remeasured in this study, pH 7.4
Protocol: Mobile phase A was 50 mM ammonium acetate adjusted to pH 7.4 and mobile phase B was 2-propanol. The flow rate was 1.5 mL/min and the run time was 6 min. The 2-propanol gradient was applied from 0 to 35% from 0 to 3.00 min and kept at 35% until 4.00 min.

[4] = human
[5] = cited from earlier work; for CHI (IAM) from ref [13]: reference CHI (IAM), old columns

T1 sequence (P02768 25-609): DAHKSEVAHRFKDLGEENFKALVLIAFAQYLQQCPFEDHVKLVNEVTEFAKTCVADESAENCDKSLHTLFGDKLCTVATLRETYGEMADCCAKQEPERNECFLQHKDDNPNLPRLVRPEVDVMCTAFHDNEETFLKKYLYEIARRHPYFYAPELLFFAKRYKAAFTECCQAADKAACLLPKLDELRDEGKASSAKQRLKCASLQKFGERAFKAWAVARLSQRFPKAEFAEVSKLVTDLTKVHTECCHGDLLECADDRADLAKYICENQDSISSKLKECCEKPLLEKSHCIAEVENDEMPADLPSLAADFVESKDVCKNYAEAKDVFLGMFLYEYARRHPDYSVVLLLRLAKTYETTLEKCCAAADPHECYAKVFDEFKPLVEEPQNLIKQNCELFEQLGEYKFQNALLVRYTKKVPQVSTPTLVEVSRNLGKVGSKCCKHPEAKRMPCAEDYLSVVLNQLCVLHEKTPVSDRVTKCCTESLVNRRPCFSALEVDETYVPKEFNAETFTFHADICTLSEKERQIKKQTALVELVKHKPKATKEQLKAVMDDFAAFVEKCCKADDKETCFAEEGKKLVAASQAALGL

Which “P20511-014-3 CHI (IAM)” value [1] does the source give for `C[C@]12C=CC(=O)C=C1CC[C@@H]1[C@@H]2C(=O)C[C@@]2(C)[C@H]1CC[C@]2(O)C(=O)CO` [Prednisone] here?
The value was 25.13.

What about the “R20511-014-3 CHI (IAM)” value [1] of the same molecule?
The value was 25.25.

And the “log K HSA from ref [13]” value [2]?
The value was 0.62.

What about the “log K HSA” value [3] of the same molecule?
Its value is 0.42.

And the “reference log Vdss” value [4]?
The value was 0.05.

What does the source list for `CC(C(=O)O)c1cccc(Oc2ccccc2)c1` (stereo not drawn) [Fenoprofen]?
P20511-014-3 CHI (IAM) [1]: 28.26; R20511-014-3 CHI (IAM) [1]: 27.17; log K HSA from ref [13] [2]: 1.58; log K HSA [3]: 2.32; reference log Vdss [4]: -1.27; CHI (IAM) from ref [13] [5]: 17.20

For `CC(=O)CCCCn1c(=O)c2c(ncn2C)n(C)c1=O` [Pentoxifylline], which “P20511-014-3 CHI (IAM)” value [1] is on record?
Its value is 13.87.

And the “R20511-014-3 CHI (IAM)” value [1]?
The value was 14.04.

And the “log K HSA from ref [13]” value [2]?
The value was 3.27.

What about the “log K HSA” value [3] of the same molecule?
The value was 4.03.

And the “reference log Vdss” value [4]?
The value was -0.1.

What about the “CHI (IAM) from ref [13]” value [5] of the same molecule?
Its value is 12.00.

With `NC(=O)N1c2ccccc2C=Cc2ccccc21` [Carbamazepine] as the molecule, how does the “P20511-014-3 CHI (IAM)” value [1] read?
The value was 27.07.

What about the “R20511-014-3 CHI (IAM)” value [1] of the same molecule?
Its value is 27.18.

What about the “CHI (IAM) deviation between reference and new IAM.PC.DD2 columns” value ([1]; system suitability test compounds) of the same molecule?
Its value is “very similar”.

What about the “CHI (IAM) “new”” value ([1]; system suitability test compounds, new IAM.PC.DD2 columns, pH 7.4) of the same molecule?
Its value is 27.0.

And the “log K HSA from ref [13]” value [2]?
Its value is 1.99.

What about the “log K HSA” value [3] of the same molecule?
The value was 1.81.

What about the “reference log Vdss” value [4] of the same molecule?
Its value is -0.09.

And the “CHI (IAM) from ref [13]” value [5]?
The value was 26.50.

With `CC(C)(C)NCC(O)COc1cccc2c1CC(O)C(O)C2` (stereo not drawn) [Nadolol] as the molecule, how does the “P20511-014-3 CHI (IAM)” value [1] read?
The value was 19.23.

And the “R20511-014-3 CHI (IAM)” value [1]?
Its value is 19.89.

And the “log K HSA from ref [13]” value [2]?
Its value is 2.93.

What about the “log K HSA” value [3] of the same molecule?
The value was 3.55.

And the “reference log Vdss” value [4]?
The value was -0.33.

And the “CHI (IAM) from ref [13]” value [5]?
The value was 20.20.

With `C=CCOc1ccc(CC(=O)O)cc1Cl` [Alclofenac] as the molecule, how does the “P20511-014-3 CHI (IAM)” value [1] read?
Its value is 21.63.

And the “R20511-014-3 CHI (IAM)” value [1]?
Its value is 20.47.

And the “log K HSA from ref [13]” value [2]?
Its value is 5.11.

What about the “log K HSA” value [3] of the same molecule?
The value was 5.40.

And the “reference log Vdss” value [4]?
Its value is -1.1.

What about the “CHI (IAM) from ref [13]” value [5] of the same molecule?
The value was 17.80.

For `Cc1cc(C)nc(NS(=O)(=O)c2ccc(N)cc2)n1` [Sulphadimidine], which “P20511-014-3 CHI (IAM)” value [1] is on record?
The value was 11.09.

And the “R20511-014-3 CHI (IAM)” value [1]?
Its value is 10.89.

And the “log K HSA from ref [13]” value [2]?
Its value is 0.75.

And the “log K HSA” value [3]?
Its value is 1.72.

And the “reference log Vdss” value [4]?
Its value is 0.22.

And the “CHI (IAM)” value ([5]; previously published, IAM column manufactured 2004-2012)?
Its value is 34.6.

What about the “CHI (IAM) from ref [13]” value [5] of the same molecule?
Its value is 34.55.

With `CCOC(=O)C1=C(C)NC(C)=C(C(=O)OC)C1c1cccc([N+](=O)[O-])c1` (stereo not drawn) [Nitrendipine] as the molecule, how does the “P20511-014-3 CHI (IAM)” value [1] read?
The value was 39.19.

What about the “R20511-014-3 CHI (IAM)” value [1] of the same molecule?
The value was 39.06.

And the “log K HSA from ref [13]” value [2]?
Its value is 2.35.

And the “log K HSA” value [3]?
Its value is 2.70.

And the “reference log Vdss” value [4]?
The value was 0.16.

And the “CHI (IAM) from ref [13]” value [5]?
The value was 40.50.

Which “P20511-014-3 CHI (IAM)” value [1] does the source give for `CC(C(=O)O)c1ccc(-c2ccccc2)c(F)c1` (stereo not drawn) [Flurbiprofen] here?
The value was 30.89.

And the “R20511-014-3 CHI (IAM)” value [1]?
Its value is 30.23.

And the “log K HSA from ref [13]” value [2]?
Its value is 1.26.

And the “log K HSA” value [3]?
Its value is 4.01.

And the “reference log Vdss” value [4]?
The value was -1.56.

What about the “CHI (IAM) from ref [13]” value [5] of the same molecule?
The value was 26.80.

Which “P20511-014-3 CHI (IAM)” value [1] does the source give for `Cc1ccc(C)c(OCCCC(C)(C)C(=O)O)c1` [Gemfibrozil] here?
The value was 34.53.

What about the “R20511-014-3 CHI (IAM)” value [1] of the same molecule?
The value was 33.70.

And the “log K HSA from ref [13]” value [2]?
Its value is 3.32.

And the “log K HSA” value [3]?
The value was 4.05.

What about the “reference log Vdss” value [4] of the same molecule?
Its value is -1.34.

And the “CHI (IAM) from ref [13]” value [5]?
The value was 32.90.

For `CC(C)NCC(O)COc1cccc2[nH]ccc12` (stereo not drawn) [Pindolol], which “outlier in correlation of reference CHI (IAM) with CHI (IAM) on column R20511-014-3” value ([1]; lower CHI (IAM) on new batches, outlier if difference greater than 7.2 CHI IAM units) is on record?
The value was “outliers”.

What about the “P20511-014-3 CHI (IAM)” value [1] of the same molecule?
Its value is 25.31.

What about the “R20511-014-3 CHI (IAM)” value [1] of the same molecule?
The value was 25.69.

And the “log K HSA from ref [13]” value [2]?
Its value is 1.81.

And the “log K HSA” value [3]?
The value was 2.40.

What about the “reference log Vdss” value [4] of the same molecule?
The value was 0.85.

And the “CHI (IAM) from ref [13]” value [5]?
The value was 42.00.

For `Cc1c(Cl)cccc1Nc1ccccc1C(=O)O` [Tolfenamic Acid], which “P20511-014-3 CHI (IAM)” value [1] is on record?
The value was 41.53.

What about the “R20511-014-3 CHI (IAM)” value [1] of the same molecule?
The value was 40.72.

What about the “log K HSA from ref [13]” value [2] of the same molecule?
Its value is 2.46.

And the “log K HSA” value [3]?
The value was 6.60.

And the “reference log Vdss” value [4]?
The value was -0.76.

And the “CHI (IAM) from ref [13]” value [5]?
Its value is 36.60.

Which “P20511-014-3 CHI (IAM)” value [1] does the source give for `COc1cnc(NS(=O)(=O)c2ccc(N)cc2)nc1` [Sulfameter] here?
The value was 7.09.

What about the “R20511-014-3 CHI (IAM)” value [1] of the same molecule?
Its value is 6.92.

And the “log K HSA from ref [13]” value [2]?
Its value is 4.09.

And the “log K HSA” value [3]?
Its value is 2.44.

What about the “reference log Vdss” value [4] of the same molecule?
Its value is -0.61.

What about the “CHI (IAM) from ref [13]” value [5] of the same molecule?
The value was 3.70.

For `Nc1cc(N2CCCCC2)nc(N)[n+]1[O-]` [Minoxidil], which “P20511-014-3 CHI (IAM)” value [1] is on record?
Its value is 16.08.

And the “R20511-014-3 CHI (IAM)” value [1]?
Its value is 15.93.

And the “log K HSA from ref [13]” value [2]?
Its value is 3.16.

And the “log K HSA” value [3]?
The value was 3.41.

What about the “reference log Vdss” value [4] of the same molecule?
The value was -0.04.

And the “CHI (IAM) from ref [13]” value [5]?
Its value is 19.00.

Which “P20511-014-3 CHI (IAM)” value [1] does the source give for `CCCN(CCC)S(=O)(=O)c1ccc(C(=O)O)cc1` [Probenecid] here?
The value was 24.38.

And the “R20511-014-3 CHI (IAM)” value [1]?
Its value is 23.45.

What about the “log K HSA from ref [13]” value [2] of the same molecule?
Its value is 0.76.

What about the “log K HSA” value [3] of the same molecule?
Its value is 0.49.

And the “reference log Vdss” value [4]?
Its value is -0.75.

What about the “CHI (IAM) from ref [13]” value [5] of the same molecule?
Its value is 20.10.

Source: PMC8915595, “Revisiting the application of Immobilized Artificial Membrane (IAM) chromatography to estimate in vivo distribution properties of drug discovery compounds based on the model of marketed drugs” (ADMET & DMPK, 2020)
